Consider one compound from article PMC9332833 (Cancers, 2022).

In series [1] the test system is K562-MDR1 cells. The experiment in a line: P-glycoprotein (CD243)/propidium iodide flow cytometry. Type of series: cell-based, human. Here is the method:
BK124.1 or DMSO were added to cells and after 24 h incubation cells were harvested and stained with FITC Mouse Anti-Human P-glycoprotein (CD243) clone 17F9 (BD, Franklin Lakes, NJ, USA) or an appropriate isotype control. Propidium iodide was added to […]. Cells were analyzed on a BD FACSCalibur flow cytometer using CellQuest software (BD, Franklin Lakes, NJ, USA). […]
Flow cytometry analysis of CD243 (P-glycoprotein)
Cells were seeded at a concentration of 1-2 × 10^5 cells/mL in a 6- or 24-well plate. After 24 hours of pre-incubation, DMSO or test compounds in DMSO were added. The cells were then incubated for 24 hours. After this time, cells were harvested, washed with 0.5% BSA in PBS (Mg2+ and Ca2+ free), and labeled for 30 minutes on ice with FITC Mouse Anti-Human P-glycoprotein (CD243) clone 17F9 (BD, Franklin Lakes, NJ, USA) or an appropriate isotype control. Following incubation with the antibody, cells were stained with propidium iodide, washed with PBS and a nalyzed on a BD FACSCalibur flow cytometer using CellQuest software (BD, Franklin Lakes, NJ, USA). […]
(In general: A flow cytometer gives signals particle by particle.)

In series [2] the test system is CD34+ cells from CML patients. Put plainly: Annexin V apoptosis assay, CML CD34+ cells. Type of series: cell-based. To be noted: Homo sapiens, 24 h. Here is the method: Blood samples were taken (venipuncture, EDTA-K2 Vacutainer tubes, Becton Dickinson, Franklin Lakes, NJ, USA) from 8 chronic phase CML patients (CML1–CML8; 4 men and 4 women, aged 39–79) diagnosed at the Department of Hematology, University Clinical Center, Medical University of Warsaw, following their written consent. The diagnosis was carried out by qualified clinical staff based on an interview, blood parameters and molecular tests detecting BCR-ABL1 (transcript b3a2). Peripheral blood mononuclear cells were immediately isolated from the fresh blood sample using standard protocol (Supplementary Methods). […]
Cells were seeded in 6-well plates (K562 or K562-MDR1) or in 24-well plates (CD34^+ cells). […] After a further 24 h, cells were stained using the Annexin V-FITC kit for the detection of apoptosis (BD, Franklin Lakes, NJ, USA) and immediately analyzed on a BD FACSCalibur using CellQuest software (BD, Franklin Lakes, NJ, USA). […]
incubated overnight at 37 °C and analyzed using an iMark Microp late absorbance reader (Bio-Rad, Hercules, CA, USA). Results were calculated relative to control cells treated with DMSO only.
[…] Stained cells were immediately analyzed on a BD FACSCalibur using CellQuest softwa re (BD, Franklin Lakes, NJ, USA). […]

The nature of series [3]: Solubility in selected solvents. Type of series: physicochemical. The source says: Supplementary Information
Table S1. Solubility of BK124.1 in selected solvents. In bold are marked solvents in which BK124.1 is soluble and stable, adequate for the administration in vivo.
Solvent Formulation Comments
Water 0.9% NaCl insoluble
10% ethanol in 0.9% NaCl insoluble
Cyclodextrin ɑ-cyclodextrin in water insoluble
β-cyclodextrin in water insoluble
γ-cyclodextrin in water insoluble […]
DMSO < 100% in water insoluble
Surfactant 20% Solutol HS 15 in 0.9% NaCl insoluble
20% Solutol HS 15 in PBS insoluble
20% Solutol HS 15, 10% ethanol in water 0.9% NaCl soluble/stable
10% Solutol HS 15, 10% ethanol in water 0.9% NaCl soluble/stable

Regarding `CCC12C(=O)C(CC)(C(c3ccccc3)=C1c1ccccc1)C1C(=O)N(CC(O)CNC(C)C)C(=O)C12` (stereo not shown) [BK124.1, 4-[2-hydroxy-3-(propan-2-ylamino)propyl]-1,7-diethyl-8,9-diphenyl-4-azatricyclo [5.2.1.02,6]dec-8-ene-3,5,10-trione], the “Proportion of K562-MDR1 cells, mean value” in series [1] (5 µM, 24 h, DMSO control 33.6%) was 68.3%. In addition, the viability at 5 µM worked out at 53.8% in series [1] (Homo sapiens, 5 µM, 24 h, DMSO control 89.2%, read-out: Living cells (viability), mean value) and 5% in series [2] (5 µM). Further, the MDR1 substrate entry in series [1] (conclusion from K562-MDR1 data) is given as “not a MDR1 substrate”. The viability at […] in series [2] (2.5 µM) came out at 10%. The Solubility entry in series [3] (0.9% NaCl) is “insoluble”; in series [3] (10% Solutol HS 15, 10% ethanol in water 0.9% NaCl) it was “soluble/stable”; in series [3] (10% ethanol in 0.9% NaCl), “insoluble”; in series [3] (20% Solutol HS 15, 10% ethanol in water 0.9% NaCl), “soluble/stable”; in series [3] (20% Solutol HS 15 in 0.9% NaCl), “insoluble”; in series [3] (20% Solutol HS 15 in PBS), “insoluble”. Moreover, the Solubility entry in series [3] (DMSO 100%) is “soluble/stable”; in series [3] (DMSO < 100% in water) it was “insoluble”; in series [3] (ɑ-cyclodextrin in water), “insoluble”; in series [3] (β-cyclodextrin in water) it was “insoluble”; in series [3] (γ-cyclodextrin in water), “insoluble”.

A word on the viability: it is a per cent measure of how many cells are alive, often set against a control.
